# B1: ε-poly-L-lysine biosynthetic enzyme: membrane-bound ε-poly-L-lysine biosynthetic enzyme (NRPS) from Streptomyces albulus strain IFO14147, amino acid sequence SEQ ID NO: 2 (protein, listed as Streptomyces albulus)
# chain: MSSPLLESSFEPSEPAPQQALYRTAGNPAPRTLLDVLDATAAAHPQAIALDTGSEALTYRDLCIEIERRARQLRDRGIGPGDRVGVRVPSGTAELYLSILAVLRSGAAYVPVDADDPDERAATVFREAAVCAVLGPDGPLPGPARPLGDPRSAGPQDDAWIIFTSGSTGAPKGVAVSHRSAAAFVDAEADLFCQDQPLGPGDRVLAGLSVAFDASCEEMWLAWRYGACLVPAPRALVRAGHELGPWLVERGITVVSTVPTLAALWPDEAMRRVRLLIVGGESCPAGLVDRFAGPGREMWNTYGPTETTVVACAARLLPGEPVRIGLPLKGWQLAVVDRTGQPVPFGAEGELLISGVGTARYLDPAKDAERFRPDDALGAARVYRTGDLVRAEPEGLLFVGRADDQIKLGGRRIELGEIDAALAALPGVRGAAAAVQTTPAGTQVLVGYVVPEQRTADGSSFQQDKARALLQERLPAQLVPVLAEVESLPTRTSGKVDRKALPWPLPSAPVDSATGDPATALDGTAARLAGIWEELLGVRPGPDSDFVSLGGTSLVAARMASQLRIHHPGVSVADLYRHPVLRDMAEHLDSLGGPVDEVRPVRPVPRRTGFVQLLVQTGLYGIAGLRGLVGLALADNVLGLLAPQVWAPHTAWWLIIVGWVVLYSAPMRCALGALAARALAGTIKPGAYPRGGATHLRLWTAERVVAAFGVPSLLGTPWTRLYARSLGCATGRNVALHTMPPVTGLAELGDGCSVEPEADISGWWLDGDTLHIGAVRIGAGARVAHRSMLMPGAVVGQGAELASGACLDGEIPDGASWSGSPARPAGAAERMAGAAWPAPAWQRSRRWSAAYGLTLLGLSLLALLSTAPALVGAYFLLRDSGTLATAGLRLLLAVPVFTLLTTGCSLLVTAAVVRLLGRGITPGLHPASGGVAWRAWLVTRLLDGARGSLFPLYASLGTPHWLRLLGAKVGRHAEISTVLPLPSLLHVEDGAFLADDTLVAPFELRGGWLRLGTVRIGRRAFVGNSGIVDPGHDVPDHSLVGVLSNAPADGEPGSSWLGRPAMPLPRVATQADPARTFAPPRRLVRARAAVELCRVLPLMCGLALAEGVFLTEQDAFAQGGLGLAALVGAPLLLASGLVALLVTTLAKWLLVGRFTVSEHPLWSSFVWRNELYDTFVESLAVPSMAGAFTGTPVLNWWLRTLGAKIGRGVWLESYWLPETDLITVADGVSVNRGCVLQTHLFHDRIMRLDTVRLAEGSSLGPHGIVLPGTEVGARASIAPSSLVMRGESVPAHTRWAGNPIAGERPARPVPARAEGGAAA
# Test system: ε-poly-L-lysine biosynthetic enzyme
# Experiment: Enzymatic production of heteropolyamino acid from lysine analog and L-lysine (ESI-LC-MS)
# Format: biochemical, Streptomyces albulus strain IFO14147
# Conditions: 2 mM substrate, L-lysine and analog mixed; 25° C., 4 hours; FIG. 9
# Procedure: A reaction solution (200 μl) containing 2 mM substrate amino acid (L-lysine and analog were mixed in a given ratio), 5 mM MgCl2, 5 mM ATP, 1 mM DTT, 20% glycerol, 0.2% (w/v) NP-40, 100 mM TAPS-NaOH buffer solution (pH 8.5) and about 10 μg of the purified enzyme preparation was put into a 1.5 ml microtube, and it was incubated at 25° C. 4 hours later, polyamino acid produced in a manner similar to that in Example 1 was subjected to ESI-LC-MS analysis.
row,Molecule,Analog taken into the polylysine molecule by the enzyme (heteropolyamino acid)
1,NCCSC[C@H](N)C(=O)O [S-(2-aminoethyl)-L-cysteine],taken into the polylysine molecule
2,NCC(O)CCC(N)C(=O)O (racemic) [DL-5-hydroxylysine],taken into the polylysine molecule
3,NCCOC[C@H](N)C(=O)O [O-(2-aminoethyl)-L-serine],taken into the polylysine molecule

# Test system: ε-poly-L-lysine biosynthetic enzyme
# Experiment: adenylation activity of L-lysine and other amino acids by ATP-PPi exchange reaction
# Format: biochemical, Streptomyces albulus strain IFO14147
# Conditions: nucleotide in place of ATP
row,Molecule,Nucleotide specificity: activation of substrate amino acids
1,Nc1ccn([C@@H]2O[C@H](COP(=O)(O)OP(=O)(O)OP(=O)(O)O)[C@@H](O)[C@H]2O)c(=O)n1 [CTP],not activated
2,Nc1nc2c(ncn2[C@@H]2O[C@H](COP(=O)(O)OP(=O)(O)OP(=O)(O)O)[C@@H](O)[C@H]2O)c(=O)[nH]1 [GTP],not activated
3,Nc1ncnc2c1ncn2[C@@H]1O[C@H](COP(=O)(O)OP(=O)(O)OP(=O)(O)O)[C@@H](O)[C@H]1O [ATP],ATP-specific
4,O=c1ccn([C@@H]2O[C@H](COP(=O)(O)OP(=O)(O)OP(=O)(O)O)[C@@H](O)[C@H]2O)c(=O)[nH]1 [UTP],not activated

# Test system: Streptomyces albulus
# Experiment: minimum growth inhibitory concentration against the bacterium in a M9 minimum medium
# Format: cell-based
# Conditions: i.e. minimum concentration to inhibit aspartokinase
row,Molecule,MIC [mM]
1,"C[C@@H](O)[C@H](N)C(=O)O [L-Thr, L-threonine]",16
2,NCCSC[C@H](N)C(=O)O [S-(2-aminoethyl)-L-cysteine],8

# Test system: ε-poly-L-lysine biosynthetic enzyme
# Experiment: ε-poly-L-lysine biosynthesis activity (L-[U-14C]lysine taken into ε-poly-L-lysine)
# Format: biochemical, Streptomyces albulus strain IFO14147
# Conditions: 5 mM Mg^2+, 5 mM Mn^2+; no concentration given for Ca^2+
# Procedure: The measurement of the ε-poly-L-lysine biosynthesis activity was performed according to the method of Kawai et al. (Biochem Biophys Res Commun. 2003 Nov. 21; 311 (3): 635-40) with some modification. A reaction solution (40 μl), which includes: 1 mM L-lysine containing 92.5 kBq/ml L-[U-14C]lysine (Amersham Biosciences); 5 mM MgCl2; 5 mM ATP; 1 mM DTT; 20% (w/v) glycerol; 0.2% (w/v) NP-40; 100 mM TAPS-NaOH buffer solution (pH 8.5); and the enzyme, was incubated at 30° C. 10 μl of the reaction solution was spotted on a glass fiber filter paper having the diameter of 2.1 cm (Whatman), and it was immediately immersed in an ice-cold sodium solution of 5% (w/v) trichloroacetic acid-0.25% (w/v) tungstic acid. It was allowed to stand for 20 minutes and thereafter mildly shaken for 5 minutes. After the filter was shaken again in the same solution for 5 minutes, it was rinsed with ethanol and then dried. The amount of radioactivity bound to the filter was measured using a liquid scintillation counter (Aloka). The amount of enzyme by which 1 pmol/second of L-lysine is taken into ε-poly-L-lysine under the above-described reaction conditions was defined as 1 unit. Specific activity of a protein is represented by unit per 1 mg of the protein. Quantitation of protein was performed using the Bradford method. A calibration curve was made using bovine serum albumin (Wako Pure Chemical Industries, Ltd.).
row,Molecule,Metal ion requirement: enzyme activity on addition of divalent cation
1,[Ca+2] [Ca^2+],activated slightly
2,[Mn+2] [Mn^2+],maximal activity
3,[Mg+2] [Mg^2+],maximal activity

# Same assay, conditions: purified enzyme preparation
row,Molecule,Optimum pH of synthesis reaction
1,B1,8.5

# Test system: ε-poly-L-lysine biosynthetic enzyme
# Experiment: adenylation activity of L-lysine and other amino acids by ATP-PPi exchange reaction
# Format: biochemical, Streptomyces albulus strain IFO14147
# Conditions: 1 mM amino acid; "None" = was not adenylated
# Procedure: The adenylation activity of L-lysine and other amino acids was measured by ATP-PPi exchange reaction. A reaction solution (40 μl), which includes: 1 mM L-lysine or another amino acid; 5 mM MgCl2; 5 mM. ATP; 1 mM DTT; 20% (w/v) glycerol; 0.2% (w/v) NP-40; 0.2 mM sodium diphosphate; 51.8 kBq/ml [32P] sodium diphosphate; 100 mM TAPS-NaOH buffer solution (pH 8.5); and the enzyme, was incubated at 30° C. 1.0 ml of a solution containing 1.2% (w/v) active carbon, 0.1 M sodium diphosphate and 0.35 M perchloric acid was added thereto to terminate the reaction. After the active carbon was washed with pure water, the amount of radioactivity bound to the active carbon was measured using a liquid scintillation counter (Aloka).
row,Molecule,Substrate specificity: adenylated by the enzyme or not
1,NCC(=O)O [Gly],None
2,CC(C)C[C@H](N)C(=O)O [L-Leu],None
3,N[C@@H](CCC(=O)O)C(=O)O [L-Glu],None
4,C[C@H](N)C(=O)O [L-Ala],None
5,NC(=O)C[C@H](N)C(=O)O [L-Asn],None
6,N[C@@H](CC(=O)O)C(=O)O [L-Asp],None
7,N[C@@H](Cc1c[nH]c2ccccc12)C(=O)O [L-Trp],None
8,CC(C)[C@H](N)C(=O)O [L-Val],None
9,NC(=O)CC[C@H](N)C(=O)O [L-Gln],None
10,O=C(O)[C@@H]1CCCN1 [L-Pro],None
11,N[C@@H](CS)C(=O)O [L-Cys],None
12,"C[C@@H](O)[C@H](N)C(=O)O [L-Thr, L-threonine]",None
13,CSCC[C@H](N)C(=O)O [L-Met],None
14,N[C@@H](Cc1ccccc1)C(=O)O [L-Phe],None
15,N[C@@H](Cc1c[nH]cn1)C(=O)O [L-His],None
16,N[C@@H](CO)C(=O)O [L-Ser],None
17,NCCCC[C@@H](N)C(=O)O [D-lysine],adenylated
18,N[C@@H](Cc1ccc(O)cc1)C(=O)O [L-Tyr],None
19,NCCSC[C@H](N)C(=O)O [S-(2-aminoethyl)-L-cysteine],adenylated
20,NCC(O)CCC(N)C(=O)O (racemic) [DL-5-hydroxylysine],adenylated
21,N=C(N)NCCC[C@H](N)C(=O)O [L-Arg],None
22,CC[C@H](C)[C@H](N)C(=O)O [L-Ile],None
23,NCCOC[C@H](N)C(=O)O [O-(2-aminoethyl)-L-serine],adenylated

# Same assay, conditions: activity to L-lysine regarded as 100%; FIG. 8
row,Molecule,Relative activity in amino acid activation (adenylation) reaction [%]
1,NCCCC[C@H](N)C(=O)O [L-lysine],100

# Test system: Streptomyces albulus
# Experiment: Microbial production of heteropolyamino acid by viable bacterium (LC-MS)
# Format: cell-based
# Conditions: 8 mM analog, 16 mM L-threonine, L-lysine; pH 4.2, 30° C., 48 hours; FIG. 10
# Procedure: A bacterium of Streptomyces albulus, which was obtained by culturing in a M3G medium (Example 1) at 30° C. for 36 hours, was washed with 100 mM citrate buffer solution (pH 4.2) twice. The washed bacterium obtained from 100 ml of culture solution was suspended in a reaction solution for bacterium consisting of 50 ml of 5% glucose, 1% ammonium sulfate, 8 mM S-(2-aminoethyl)-L-cysteine, 16 mM L-threonine (the concentration of each of the amino acids corresponds to a minimum growth inhibitory concentration against the bacterium in a M9 minimum medium, i.e., a minimum concentration to inhibit aspartokinase which is the key enzyme for L-lysine biosynthesis), and 100 mM citrate buffer solution (pH 4.2) containing a given amount of L-lysine, and it was subjected to shaking culture at 30° C. for 48 hours. After the completion of culture, polyamino acid contained in the culture supernatant collected by centrifugation was subjected to LC-MS analysis using the method of Example 1 (paragraph [0091]).
row,Molecule,Analog taken into the polylysine molecule by viable bacterium (heteropolyamino acid)
1,NCCSC[C@H](N)C(=O)O [S-(2-aminoethyl)-L-cysteine],taken into the polylysine molecule

# From patent US8030042B2, “Polyamino acid synthetase and gene encoding the same” (JNC Corporation, priority 2007, dated 2011)
